Several values for one entry are separate records, joined by “and”; a condition that tells them apart may be missing. Identical values can stand only once.
Molecular target: T1, Met receptor (EGFR/Met chimeric cells, EMR) (Homo sapiens, UniProt P08581)
T1 construct: expressed in transfected cells; the other entry of the earlier key: EGFR (P00533, Epidermal growth factor receptor)
Assay: Met Autophosphorylation Assay
Format: biochemical
Procedure: Met Autophosphorylation Assay
This assay determines Met tyrosine kinase activity by analyzing Met protein tyrosine kinase levels on the Met receptor.
a. HNTG (5× stock solution): Dissolve 23.83 g HEPES and 43.83 g NaCl in about 350 ml dH2O. Adjust pH to 7.2 with HCl or NaOH, add 500 ml glycerol and 10 ml Triton X-100, mix, add dH2O to 1 L total volume. To make 1 L of 1× working solution add 200 ml 5× stock solution to 800 ml dH2O, check and adjust pH as necessary, store at 4° C.
b. PBS (Dulbecco's Phosphate-Buffered Saline), Gibco Cat. # 450-1300EB (1× solution).
c. Blocking Buffer: in 500 ml dH2O place 100 g BSA, 12.1 g Tris-pH7.5, 58.44 g NaCl and 10 ml Tween-20, dilute to 1 L total volume.
d. Kinase Buffer: To 500 ml dH2O add 12.1 g TRIS (pH 7.2), 58.4 g NaCl, 40.7 g MgCl2 and 1.9 g EGTA; bring to 1 L total volume with dH2O.
e. PMSF (Phenylmethylsulfonyl fluoride), Sigma Cat. # P-7626, to 435.5 mg, add 100% ethanol to 25 ml total volume, vortex.
f. ATP (Bacterial Source), Sigma Cat. # A-7699, store powder at −20° C.; to make up solution for use, dissolve 3.31 mg in 1 ml dH2O.
g. RC-20H HRPO Conjugated Anti-Phosphotyrosine, Transduction Laboratories Cat. # E120H.
h. Pierce 1-Step Turbo™ B-ELISA (3,3′,5,5′-tetramethylbenzidine, Pierce Cat. # 34022.
i. H2SO4, add 1 ml conc.(18 N) to 35 ml dH2O.
j. TRIS HCL, Fischer Cat. # BP152-5; to 121.14 g of material, add 600 ml MilliQ H2O, adjust pH to 7.5 (or 7.2) with HCl, bring volume to 1 L with MilliQ H2O.
k. NaCl, Fischer Cat. # S271-10, make up 5M solution.
m. Na3VO4, Fischer Cat. # S454-50, to 1.8 g material add 80 ml MilliQ H2O, adjust pH to 10.0 with HCl or NaOH, boil in microwave, cool, check pH, repeat procedure until pH stable at 10.0, add MilliQ H2O to 100 ml total volume, make 1 ml aliquots and store at −80° C.
n. MgCl2, Fischer Cat. # M33-500, make up 1M solution.
o. HEPES, Fischer Cat. # BP310-500, to 200 ml MilliQ H2O, add 59.6 g material, adjust pH to 7.5, bring volume to 250 ml total, sterile filter.
p. Albumin, Bovine (BSA), Sigma Cat. # A-4503, to 30 grams material add sterile distilled water to make total volume of 300 ml, store at 4° C.
q. TBST Buffer: to approx. 900 ml dH2O in a 1 L graduated cylinder add 6.057 g TRIS and 8.766 g NaCl, when dissolved, adjust pH to 7.2 with HCl, add 1.0 ml Triton X-100 and bring to 1 L total volume with dH2O.
r. Goat Affinity purified antibody Rabbit IgG (whole molecule), Cappel Cat. # 55641.
s. Anti h-Met (C-28) rabbit polyclonal IgG antibody, Santa Cruz Chemical Cat. # SC-161.
t. Transiently Transfected EGFR/Met chimeric cells (EMR) (Komada, et al., Oncogene, 8:2381-2390 (1993).
u. Sodium Carbonate Buffer, ([…], Fischer Cat. # S495) to 10.6 g material add 800 ml MilliQ H2O, when dissolved adjust pH to 9.6 with NaOH, bring up to 1 L total volume with MilliQ H2O, filter, store at 4° C.
All of the following steps are conducted at room temperature unless it is specifically indicated otherwise. All ELISA plate washing is by rinsing 4× with TBST.
This procedure can be performed the night before or immediately prior to the start of receptor capture.
1. Quick thaw lysates in a 37° C. waterbath with a swirling motion until the last crystals disappear.
2. Lyse cell pellet with 1× HNTG containing 1 mM PMSF. Use 3 ml of HNTG per 15 cm dish of cells. Add ½ the calculated HNTG volume, vortex the tube for 1 min., add the remaining amount of HNTG, vortex for another min.
3. Balance tubes, centrifuge at 10,000× g for 10 min at 4° C.
4. Pool supernatants, remove an aliquot for protein determination.
5. Quick freeze pooled sample in dry ice/ethanol bath. This step is performed regardless of whether lysate will be stored overnight or used immediately following protein determination.
6. Perform protein determination using standard bicinchoninic acid (BCA) method (BCA Assay Reagent Kit from Pierce Chemical Cat. # 23225).
1. Coat Corning 96 well ELISA plates with 5 μg per well Goat anti-Rabbit antibody in Carbonate Buffer for a total well volume of 50 μl. Store overnight at 4° C. […]

T1 sequence (P08581 with tags, fused parts or gaps): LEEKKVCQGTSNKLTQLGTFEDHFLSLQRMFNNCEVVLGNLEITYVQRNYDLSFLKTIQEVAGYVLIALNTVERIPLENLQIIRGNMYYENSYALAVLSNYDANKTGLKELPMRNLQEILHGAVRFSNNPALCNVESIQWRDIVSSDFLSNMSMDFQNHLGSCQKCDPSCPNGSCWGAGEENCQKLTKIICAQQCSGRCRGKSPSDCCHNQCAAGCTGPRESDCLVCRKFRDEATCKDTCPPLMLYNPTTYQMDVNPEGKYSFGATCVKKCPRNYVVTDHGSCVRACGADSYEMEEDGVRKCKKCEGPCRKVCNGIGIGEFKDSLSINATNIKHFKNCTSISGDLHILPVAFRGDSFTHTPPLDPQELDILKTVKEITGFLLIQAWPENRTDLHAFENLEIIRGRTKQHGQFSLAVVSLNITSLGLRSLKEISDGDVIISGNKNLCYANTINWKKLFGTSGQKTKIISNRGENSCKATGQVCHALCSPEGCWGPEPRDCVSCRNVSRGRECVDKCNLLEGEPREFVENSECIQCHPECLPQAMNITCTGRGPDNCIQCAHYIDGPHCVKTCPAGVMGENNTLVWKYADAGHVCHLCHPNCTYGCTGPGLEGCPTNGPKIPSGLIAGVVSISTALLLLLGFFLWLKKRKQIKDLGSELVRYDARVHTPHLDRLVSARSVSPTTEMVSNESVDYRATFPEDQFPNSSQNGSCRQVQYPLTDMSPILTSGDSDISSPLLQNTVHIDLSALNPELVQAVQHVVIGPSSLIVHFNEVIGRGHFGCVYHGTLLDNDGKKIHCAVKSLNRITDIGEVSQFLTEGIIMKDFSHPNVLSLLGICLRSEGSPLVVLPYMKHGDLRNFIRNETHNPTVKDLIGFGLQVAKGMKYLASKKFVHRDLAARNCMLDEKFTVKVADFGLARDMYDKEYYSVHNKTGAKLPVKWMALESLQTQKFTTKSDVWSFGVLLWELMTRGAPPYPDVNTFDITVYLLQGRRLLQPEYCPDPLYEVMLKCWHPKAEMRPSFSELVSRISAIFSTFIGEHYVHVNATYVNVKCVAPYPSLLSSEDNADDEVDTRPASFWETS

Row | Compound | Met Kinase % Inhibition (P.130)
1 | COc1cc(OC)c(OC)cc1C=C1C(=O)Nc2c(Br)cc(Br)c(C)c21 [10730/H03] | 28.3%
2 | Cc1c(Br)cc(Br)c2c1C(=Cc1cc3ccccc3nc1Cl)C(=O)N2 [10730/H08] | 57.8%
3 | CCN(CC)c1ccc(C=C2C(=O)Nc3c(Br)cc(Br)c(C)c32)cc1 [10727/H02] | 55.5%
4 | Cc1c(Br)cc(Br)c2c1C(=C1C(=O)Nc3ccccc31)C(=O)N2 [10726/H09] | 68.1%
5 | Cc1c(Br)cc(Br)c2c1C(=Cc1cc(I)c(OCc3ccccc3)c(C(C)(C)C)c1)C(=O)N2 [10733/H02] | 38.9%
6 | Cc1c(Br)cc(Br)c2c1C(=Cc1ccc3c(c1)Cc1ccccc1-3)C(=O)N2 [10728/H06] | 28.5%
7 | COc1c(C)cc(C=C2C(=O)Nc3c(Br)cc(Br)c(C)c32)cc1C [10733/H06] | 18.4%
8 | COc1cc(C=C2C(=O)Nc3c(Br)cc(Br)c(C)c32)cc(OC)c1OC [10730/H04] | 37.1%
9 | Cc1c(Br)cc(Br)c2c1C(=Cc1ccc(F)cc1)C(=O)N2 [10717/H05] | 16.3%
10 | COc1cccc(C=C2C(=O)Nc3c(Br)cc(Br)c(C)c32)c1OC [10727/H11] | 17.9%
11 | COc1c(Cl)cc(C=C2C(=O)Nc3c(Br)cc(Br)c(C)c32)cc1C(C)(C)C [10732/H09] | 49.8%
12 | COc1cccc(OC)c1C=C1C(=O)Nc2c(Br)cc(Br)c(C)c21 [10728/H03] | 15.6%
13 | Cc1c(Br)cc(Br)c2c1C(=Cc1cc(Br)c(OCc3ccccc3)c(C(C)(C)C)c1)C(=O)N2 [10732/H08] | 38.7%
14 | Cc1c(Br)cc(Br)c2c1C(=Cc1ccc(Br)o1)C(=O)N2 [10726/H05] | 80.2%
15 | Cc1c(Br)cc(Br)c2c1C(=Cc1coc3ccc([N+](=O)[O-])cc3c1=O)C(=O)N2 [10731/H07] | 1.8%
16 | Cc1c(Br)cc(Br)c2c1C(=Cc1c[nH]c3ccccc13)C(=O)N2 [10717/H06] | 30.5%
17 | COc1c([N+](=O)[O-])cc(C=C2C(=O)Nc3c(Br)cc(Br)c(C)c32)cc1C(C)(C)C [10733/H03] | 0.6%
18 | Cc1c(Br)cc(Br)c2c1C(=Cc1cc(C(C)(C)C)c(OCc3ccccc3)c(C(C)(C)C)c1)C(=O)N2 [10733/H05] | 5.6%
19 | Cc1ccc2occ(C=C3C(=O)Nc4c(Br)cc(Br)c(C)c43)c(=O)c2c1 [10731/H06] | 17.2%
20 | COc1ccc(C=C2C(=O)Nc3c(Br)cc(Br)c(C)c32)cc1 [10726/H11] | 40.8%
21 | CCc1ccc(C=C2C(=O)Nc3c(Br)cc(Br)c(C)c32)s1 [10726/H10] | 45.7%
22 | C=C(C)C1CC=C(C=C2C(=O)Nc3c(Br)cc(Br)c(C)c32)CC1 (stereo not drawn) [10731/H04] | 41.0%
23 | Cc1c(Br)cc(Br)c2c1C(=Cc1ccc(N3CCCC3)cc1)C(=O)N2 [10729/H10] | 12.8%
24 | Cc1c(Br)cc(Br)c2c1C(=C1C(=O)Nc3ccc(F)cc31)C(=O)N2 [10726/H08] | 71.2%
25 | Cc1c(Br)cc(Br)c2c1C(=Cc1cc(O)c3c(c1O)CCCC3)C(=O)N2 [10726/H07] | 80.9%
26 | Cc1c(Br)cc(Br)c2c1C(=Cc1cc(Cl)cc(Br)c1O)C(=O)N2 [10727/H04] | 81.7%

Row | Compound | Met Kinase % Inhibition (P.130)
27 | Cc1c(Br)cc(Br)c2c1C(=Cc1ccccn1)C(=O)N2 [10729/H07] | 81.0%
28 | COc1cc(C=C2C(=O)Nc3c(Br)cc(Br)c(C)c32)cc2c1OCO2 [10728/H11] | 8.0%
29 | COc1ccc2[nH]cc(C=C3C(=O)Nc4c(Br)cc(Br)c(C)c43)c2c1 [10731/H09] | 12.8%
30 | Cc1c(Br)cc(Br)c2c1C(=Cc1cc3c(cc1Cl)OCO3)C(=O)N2 [10727/H06] | 5.2%
31 | COc1c(C(C)(C)C)cc(C=C2C(=O)Nc3c(Br)cc(Br)c(C)c32)cc1C(C)(C)C [10733/H04] | 11.9%
32 | CCn1c2ccccc2c2cc(C=C3C(=O)Nc4c(Br)cc(Br)c(C)c43)ccc21 [10731/H02] | 16.4%
33 | COc1ccc(OC)c(C=C2C(=O)Nc3c(Br)cc(Br)c(C)c32)c1 [10728/H02] | 25.8%
34 | COC1CC(C=C2C(=O)Nc3c(Br)cc(Br)c(C)c32)C(OC)O1 (stereo not drawn) [10730/H10] | 24.9%
35 | COc1ccc(C=C2C(=O)Nc3c(Br)cc(Br)c(C)c32)c2ccccc12 [10729/H03] | 2.8%
36 | Cc1cc(C=C2C(=O)Nc3c(Br)cc(Br)c(C)c32)oc1C [10730/H11] | 32.6%
37 | Cc1ccc(C=C2C(=O)Nc3c(Br)cc(Br)c(C)c32)s1 [10717/H07] | 9.1%
38 | COc1ccc(C=C2C(=O)Nc3c(Br)cc(Br)c(C)c32)c(OC)c1OC [10730/H02] | 32.0%
39 | Cc1c(Br)cc(Br)c2c1C(=Cc1c(F)cccc1C(F)(F)F)C(=O)N2 [10728/H09] | 30.5%
40 | Cc1c(Br)cc(Br)c2c1C(=Cc1cc(Br)ccc1O)C(=O)N2 [10733/H09] | 51.9%
41 | Cc1c(Br)cc(Br)c2c1C(=Cc1ccccc1OCC(=O)O)C(=O)N2 [10728/H10] | 65.2%
42 | Cc1c(Br)cc(Br)c2c1C(=Cc1c[nH]c(=O)[nH]c1=O)C(=O)N2 [10731/H08] | 10.9%
43 | Cc1c(Br)cc(Br)c2c1C(=CC1C=CCCC1)C(=O)N2 (stereo not drawn) [10729/H11] | 36.1%
44 | COc1c(I)cc(C=C2C(=O)Nc3c(Br)cc(Br)c(C)c32)cc1C(C)(C)C [10732/H11] | 46.7%
45 | Cc1c(Br)cc(Br)c2c1C(=Cc1cccc(Oc3ccccc3)c1)C(=O)N2 [10729/H06] | 28.4%
46 | Cc1c(Br)cc(Br)c2c1C(=Cc1cc(O)ccc1O)C(=O)N2 [10727/H10] | 89.7%
47 | COc1cc(C=C2C(=O)Nc3c(Br)cc(Br)c(C)c32)cc(OC)c1 [10728/H04] | 32.9%
48 | Cc1c(Br)cc(Br)c2c1C(=Cc1ccccc1Sc1ccc(Cl)cc1)C(=O)N2 [10727/H05] | 20.6%
49 | COc1c(O)ccc(C=C2C(=O)Nc3c(Br)cc(Br)c(C)c32)c1[N+](=O)[O-] [10733/H11] | 76.7%
50 | COc1cc(N(C)C)ccc1C=C1C(=O)Nc2c(Br)cc(Br)c(C)c21 [10728/H05] | 41.2% and 33.9%
51 | COc1cc(Br)cc(C=C2C(=O)Nc3c(Br)cc(Br)c(C)c32)c1O [10733/H08] | 41.6%
